# According to PubChem BioAssay AID1996:
# Conditions: buffer; pH 7.4; 200.0 µM
row,SMILES,solubility kinetic [µg/mL]
1,O=C(CC1OCC2CCCN2C1=O)Nc1ccc([N+](=O)[O-])cc1 (stereo not drawn),45.5
2,COc1cccc(CNCCc2c[nH]c3ccccc23)c1OC.Cl,> 52
3,Cc1ccc(OCC(=O)OCC(=O)Nc2ccc3c(c2)OCO3)cc1C,9.6
4,CCOc1ccc(S(=O)(=O)/N=C(/Nc2ccc(S(N)(=O)=O)cc2)c2ccccc2)cc1,2.2
5,Cc1cccc(S(=O)(=O)NCCc2ccccc2)c1,35.7
6,COC(=O)c1cc(CNC(=O)Cc2ccsc2)ccc1OC,47.5
7,COc1ccc(-c2cc(C(=O)N3CCCC3)no2)cc1,30.4
8,Cc1cccc(NC(=O)c2cccc(C(=O)Nc3cccc(C)c3C)n2)c1C,1.1
9,COc1ccc(C(=O)NCC(=O)OCC(=O)N2CC(C)OC(C)C2)cc1OC (stereo not drawn),> 59.2
10,N#Cc1cccc(NS(=O)(=O)c2ccccc2Cl)c1,> 43.9
11,O=C(NCC1CC1)c1cc([N+](=O)[O-])cc([N+](=O)[O-])c1,> 39.8
12,O=C(COC(=O)COc1ccccc1[N+](=O)[O-])Nc1ccc2c(c1)OCO2,51.5
13,O=c1[nH]c2ccccc2c(O)c1-c1ccccc1,17.2
14,c1ccc(-c2nc3ccccc3[nH]2)cc1,21.9
15,CCCc1cc(=O)[nH]c(SCC(=O)N2CCOCC2)n1,> 44.6
16,O=C(Nc1sc2c(c1C(=O)NCCCO)CCCC2)c1ccccc1,1.6
17,Cc1cc(C(=O)OCC(=O)NC2CCCC(C)C2C)c(C)o1 (stereo not drawn),12.4
18,CC(=O)C1=C(C)OC(N)=C(C#N)C1c1cccnc1 (stereo not drawn),> 38.3
19,CN1CCN(C(=O)c2cc3cc(Cl)ccc3[nH]2)CC1.Cl,> 47.1
20,CCCc1cc(C(=O)Nc2cccc([N+](=O)[O-])c2)cs1,1.7
21,Cc1cccc(NC(=O)c2ccco2)c1C,31.8
22,N=C1C(c2nc3ccccc3s2)=C(O)CN1C1CCC(O)CC1 (stereo not drawn),5.1
23,CCOC(=O)c1c(NC(=O)COC(=O)c2cccnc2OCC)sc(C(=O)N(CC)CC)c1C,4.6
24,CCN(C(=O)c1ccc2c(c1)OCO2)C12CC3CC(CC(C3)C1)C2,4

row,SMILES,solubility kinetic [µg/mL]
1,Cc1onc(-c2c(F)cccc2Cl)c1C(=O)c1ccccc1O,2.6
2,CCOC(=O)c1cc2ccccc2n1CC(=O)c1ccccc1,< 0.7
3,S=C1NCN(C2CCCCC2)CN1CCc1ccccc1,16.1
4,COc1cccc(C(=O)NCCSc2c(C)[nH]c3ccccc23)c1OC,16.1
5,CCOC(=O)c1ccc(NC(=O)c2cc(F)c(F)cc2Cl)cc1,< 0.7
6,CC(=O)c1cccc(NC(=O)COC(=O)Cn2cnc3ccccc32)c1,> 52.7
7,CCn1c(SCc2ccc(F)cc2)nc2ccccc2c1=O,0.5
8,Cc1cc(C(=O)Nc2ccc(Br)cn2)sc1C,2.2
9,CCOc1ccc(-c2csc3ncn(-c4ccc(OC)cc4)c(=O)c23)cc1,0.4
10,CCOC(=O)C1Nc2ccc(C(=O)O)cc2C2C=CCC12 (stereo not drawn),> 43.1
11,CCOc1ccc(S(=O)(=O)N2CCN(c3ccccn3)CC2)cc1,1.6
12,Cn1c(O)c(C=Nc2ccc(F)cc2)c(=O)[nH]c1=O,11.9
13,O=C(CCNC(=O)c1ccc([N+](=O)[O-])cc1)NCc1ccco1,> 47.6
14,Nc1nc(NCc2ccco2)nc(Nc2cccc(F)c2)c1[N+](=O)[O-],0.3
15,NC(=NC1CCCCC1)NS(=O)(=O)c1ccccc1,> 42.2
16,Cc1sc2c(c1C)C(=O)/C(=C\Nc1ccccn1)S(=O)(=O)N2C,< 0.2
17,C=CCNC(=O)CSCc1ccc(Br)cc1,> 45
18,CCN(CC(=O)N1CCOCC1)S(=O)(=O)c1ccc(F)cc1,41.2
19,COc1ccc(N2C(=O)CC(NCC#N)C2=O)cc1 (stereo not drawn),33.1
20,O=C(NCC1CCCO1)c1cc2cc(Cl)ccc2[nH]1 (stereo not drawn),17
21,CC(=O)Nc1cccc(NC(=O)CSc2nnc3ccccn23)c1,> 51.2
22,COc1cc(CCC(=O)OCC(=O)NCCc2ccc(S(N)(=O)=O)cc2)cc(OC)c1OC,> 72.1
23,Cc1cccc(NC(=O)c2ccc(S(=O)(=O)N3CCCC3)cc2)c1C,2
24,Cc1ccnc(NC(=O)c2cccc(S(=O)(=O)Nc3ccc(C)cc3C)c2)c1,10.7

row,SMILES,solubility kinetic [µg/mL]
1,c1ccc2c(c1)COC(CNC1CCCCC1)OC2,> 39.2
2,O=C(COC(=O)c1cccc(Cl)c1)NCc1ccccc1,4.6
3,CCOc1ncccc1C(=O)Nc1cc(S(=O)(=O)N(CC)CC)ccc1N1CCOCC1,6.5
4,Cc1ccccc1NC(=O)Cc1c[nH]c2ccccc12,39.5
5,Cc1nn(C)c(Sc2ccccn2)c1[N+](=O)[O-],> 37.5
6,COc1cccc(/C=C/C(=O)OCC(=O)NCCc2ccccc2)c1,6.7
7,O=C(NCC(c1ccco1)N1CCCCC1)c1cccs1 (stereo not drawn),> 45.7
8,Cc1cc(N)ccc1-c1cc2ccccc2oc1=O,25.8
9,CC1CC1C(=O)Nc1nc2ccc(S(C)(=O)=O)cc2s1 (stereo not drawn),> 46.6
10,CS(=O)(=O)N1CCCC(C(=O)c2cccc(Cl)c2)C1 (stereo not drawn),> 45.3
11,O=C(Nc1ccc(S(=O)(=O)NC2=NCCCCC2)cc1)c1cccs1,> 56.6
12,Cc1ccccc1C(=O)N1CCC(C(=O)OCc2ccccn2)CC1,> 50.8
13,COc1ccc(/C=C/C(=O)O)cc1S(=O)(=O)N1CCCCC1,> 48.8
14,Cc1cc(OCC(=O)OCC(=O)Nc2cc(S(=O)(=O)N3CCOCC3)ccc2Cl)ccc1Cl,16.2
15,COc1ccc2[nH]cc(C(=O)CN3CCCC(C)(C)C3)c2c1,> 45.1
16,Cc1ccc(NC(=O)C(Cc2ccccc2)n2cccc2)cc1 (stereo not drawn),1.9
17,Cc1csc2c(N(C)CCO)ncnc12,> 33.5
18,COC(=O)CCCCCCCCC(O)CN(C)C (stereo not drawn),27.7
19,O=C(O)C1CCN(S(=O)(=O)c2cccc3cccnc23)CC1,> 48.1
20,Cc1ccc(C)c(NC(=S)N2CCC(NC(=O)c3ccco3)CC2)c1,45.4
21,CCCCNC(=O)c1cc2c(=O)n3cccc(C)c3nc2s1,1.3
22,CCCC(=O)N/C(N)=N/c1nc(C)c2cc(C)ccc2n1,8.5
23,CSC(=Nc1ccccc1)C(C#N)c1nc2ccccc2[nH]1 (stereo not drawn),0.3
24,Nc1ccc2c(c1)Oc1ccccc1C=C2,12.3

row,SMILES,solubility kinetic [µg/mL]
1,CC(O)CNCCCOc1cccc(C(F)(F)F)c1.O=C(O)C(=O)O (stereo not drawn),51.7
2,C=CCn1c(O)c(N=O)c2cc(C)ccc21,> 32.4
3,O=C(NC1CCSC1=O)C1CC(=O)N(c2ccc(F)cc2)C1 (stereo not drawn),46.2
4,Cn1cnc(S(=O)(=O)Nc2cc(-c3ccc(Cl)cc3)nn2C)c1,> 52.8
5,O=C(CN1C(=O)COc2ccccc21)NCC1CCCO1 (stereo not drawn),> 43.5
6,CC(C)CNC(=O)c1cc(-c2ccc3c(c2)OCO3)on1,0.5
7,Cc1cccc(NC(=O)CN(CCc2ccccc2)S(C)(=O)=O)c1,> 52
8,O=C(COc1ccccc1)NCC1(N2CCCCC2)CCCCC1,48.3
9,Cc1cc(C)nc(N2CCCC(C(=O)Nc3ccc(F)cc3)C2)n1 (stereo not drawn),1.2
10,CNC(=O)c1cc(C(=O)c2ccc(Cl)cc2)c(Br)[nH]1,1.7
11,CCN(CC(=O)Nc1c(F)cccc1F)C(=O)C1CC1C (stereo not drawn),> 44.4
12,O=c1cc(C(F)(F)F)[nH]c2ccc(C(F)(F)F)cc12,> 42.2
13,CCCNc1nc(OC)nc(N2CC3CC(C2)c2cccc(=O)n2C3)n1 (stereo not drawn),50.6
14,CN1CCN(C(=S)C(=O)Nc2ccccc2)CC1,38.2
15,c1ccc2c(c1)CC1(CCCC1)N=C2N1CCOCC1,35.5
16,Cc1nc2c(C)[n+](CC(=O)c3ccccc3)ccc2n1C.[Br-],> 54
17,Cn1c(=O)n(C)c2cc(NC(=O)c3ccc(F)cc3)ccc21,15.5
18,CN(CC(=O)Nc1ccc(Cl)cc1)C(=O)CCC1CCCC1,0.4
19,Cc1ccccc1C(=O)N1CCC(C(=O)NC2CCCC2)CC1,38.6
20,Cl.O=C(O)CN1CCCCC1,23.8
21,COc1ccc(-n2c(SC)nc3sc4c(c3c2=O)CCN(C)C4)cc1,34.8
22,Cc1cccc(C(=O)Nc2sc3c(c2C(=O)O)CCCC3)c1,6.9
23,Cc1cc(Cl)ccc1OCCCC(=O)NCCCn1ccnc1,> 50.4
24,Cc1ccc(C)c(CSCc2nc3ccccc3[nH]2)c1,20.6

row,SMILES,solubility kinetic [µg/mL]
1,CC1CCCC1/C(=N/O)c1ccccc1 (stereo not drawn),16.9
2,CCN(CC)P(=O)(Oc1ccccc1)Oc1ccccc1,34.2
3,CCCc1ccc2oc(C(=O)N3CCC[C@H]3CO)c(C)c2c1,41.8
4,CCc1ccc(C2CC(=O)Nc3c2c(=O)nc2c(C)cccn32)cc1 (stereo not drawn),> 50
5,Nc1cc(=O)[nH]c(SCCSc2ccccc2)n1,9.6
6,CC(C)(C)NC(=O)COc1ccc(CNc2ccc3[nH]c(=O)[nH]c3c2)cc1,0.8
7,O=C(NCCSCc1c(F)cccc1Cl)Nc1ccccc1,2.5
8,COc1ccc(NC(=O)CCC(=O)N2CCOCC2)c([N+](=O)[O-])c1,> 50.6
9,CCc1ccccc1NC(=O)c1sc2nc(C)cc(C)c2c1N,0.5
10,CC(C)N1CC(C(=O)Nc2ccc(Cl)c(Cl)c2)CC1=O (stereo not drawn),> 47.3
11,O=C(Nc1ccc(F)c(Cl)c1)N1CCCCCC1,5.8
12,Cn1c(SCC(=O)NC2CCCC2)nnc1-c1ccco1,> 46
13,COc1ccc(CCNC(=O)c2cccn2C)cc1,33.3
14,O=C1c2ccccc2NC(c2ccccc2O)N1c1ccc(F)cc1 (stereo not drawn),5.5
15,CC(C)(C)C(=O)/C=C1\NC(=O)CS1,> 29.9
16,O=C(Nc1ccc2c(c1)OCO2)C1CC(=O)N(c2ccccc2)C1 (stereo not drawn),3.3
17,CC(C)C1Oc2ccccc2N(CC(=O)N2CCOCC2)C1=O (stereo not drawn),> 47.8
18,O=C(Nc1ccccc1F)C1COc2ccccc2O1 (stereo not drawn),25.6
19,CCNC(=O)CC1C(=O)N(c2ccc(C)cc2)C(=O)N1CCC(C)C (stereo not drawn),> 51.8
20,COc1ccccc1/C=C1\C(=O)Nc2ccccc21,2
21,Cc1ccc[n+](CC(=O)N2CCCCC2)c1C.[Br-],> 47
22,CNCc1ccccc1Sc1ccc(O)c(O)c1.O=C([O-])/C=C\C(=O)[O-],31.5
